Measured values: the supplement of paper PMC10307832

Legend:
Test in all cases: relative viability (nuclei count vs DMSO), 5 days (fraction); higher = more cells survive
[1] = compound: COC1=CC=C(C=C1)CN2C=CC3=C2C=C(C=C3)C(=O)NO + CCNC(=O)c1noc(-c2cc(C(C)C)c(O)cc2O)c1-c1ccc(CN2CCOCC2)cc1 [Luminespib] (partner 0.01 µM)
How it was run: (§1)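 The day after seeding in 1536-well plates, lung cancer cell lines were treated by pin tool with a single drug, or with a fixed anchor-drug dose together with five library-drug doses (not always all listed) in √10 steps. After 5 days, a combined fix-and-stain solution (final 0.05% Triton X-100, 1% formaldehyde, 1 ug/ml Hoechst) was added. Nuclei counted on 4× images gave relative viability as treated counts over vehicle counts, reported as the median of duplicate plates.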

[2] = compound: COC1=CC=C(C=C1)CN2C=CC3=C2C=C(C=C3)C(=O)NO + CS(=O)(=O)N1CCN(Cc2cc3nc(-c4cccc5[nH]ncc45)nc(N4CCOCC4)c3s2)CC1 [Pictilisib] (partner 1 µM)
How it was run: as §1

[3] = compound: C[C@]1(c2nc3c(C(N)=O)cccc3[nH]2)CCCN1 [Veliparib] + COc1cccc2cc(-c3nc([C@H]4CC[C@H](C(=O)O)CC4)n4ncnc(N)c34)[nH]c12 [OSI-027] (partner 0.5 µM)
How it was run: as §1

[4] = compound: C[C@]1(c2nc3c(C(N)=O)cccc3[nH]2)CCCN1 [Veliparib] + NC(=O)Nc1cc(-c2cccc(F)c2)sc1C(=O)N[C@H]1CCCNC1 [AZD7762] (partner 0.2 µM)
How it was run: as §1

Cell Line	relative viability ([1]; first compound 0.253 µM)	relative viability ([1]; first compound 0.8 µM)	relative viability ([1]; first compound 2.53 µM)	relative viability ([1]; first compound 8 µM)	relative viability ([2]; first compound 0.08 µM)	relative viability ([2]; first compound 0.253 µM)	relative viability ([2]; first compound 0.8 µM)	relative viability ([2]; first compound 2.53 µM)	relative viability ([2]; first compound 8 µM)	relative viability ([3]; first compound 0.02 µM)	relative viability ([3]; first compound 0.06325 µM)	relative viability ([3]; first compound 0.2 µM)	relative viability ([3]; first compound 0.6325 µM)	relative viability ([3]; first compound 2 µM)	relative viability ([4]; first compound 0.02 µM)	relative viability ([4]; first compound 0.06325 µM)	relative viability ([4]; first compound 0.2 µM)	relative viability ([4]; first compound 0.6325 µM)	relative viability ([4]; first compound 2 µM)	relative viability ([1]; first compound 0.08 µM)
NCI-H1793	0.184	0.17	0.18	0.219	0.17	0.239	0.395	0.267	0.335	0.317	0.265	0.31	0.286	0.262	0.532	0.518	0.592	0.56	0.581	–
NCI-H1915	0.812	0.885	0.84	0.768	0.62	0.997	1.08	0.973	0.735	0.587	0.616	0.545	0.567	0.574	0.661	0.643	0.517	0.556	0.519	0.646
NCI-H1944	0.788	0.791	0.748	0.728	–	0.37	0.317	0.357	0.322	0.439	0.363	0.394	0.349	0.384	0.521	0.592	0.504	0.511	0.529	–
NCI-H1975	0.238	0.281	0.262	0.114	0.304	0.297	0.281	0.299	0.252	0.715	0.674	0.676	0.677	0.68	0.765	0.639	0.737	0.736	0.61	0.26
NCI-H1993	0.812	1.09	0.826	0.845	0.717	0.0552	0.772	0.837	0.756	0.592	0.531	0.562	0.585	0.51	–	0.875	0.934	0.664	0.607	0.57
NCI-H2085	0.413	0.409	0.447	0.471	0.44	0.491	0.53	0.492	0.426	–	0.721	0.629	0.713	0.675	0.813	0.984	1.05	1.03	0.911	0.392
NCI-H2087	0.165	0.193	0.208	0.132	0.497	0.936	0.776	0.976	0.674	0.303	0.475	0.504	0.456	0.539	1.29	1.23	1.5	1.3	1.19	0.131
NCI-H2126	0.967	0.944	0.917	0.881	0.479	0.496	0.53	0.558	0.443	0.647	0.608	0.747	0.749	0.679	0.957	0.975	1.03	1.07	0.834	0.839
NCI-H2170	0.748	0.549	0.833	0.589	0.271	0.393	0.347	0.27	0.279	0.771	0.748	0.741	0.683	0.617	0.849	0.904	0.786	0.829	0.734	0.566
NCI-H2347	0.383	0.396	0.552	0.501	0.494	0.652	0.596	–	0.462	0.416	0.377	0.473	0.206	0.347	0.77	0.787	0.788	0.769	0.624	0.361
NCI-H2405	0.689	0.77	0.679	0.583	0.316	0.378	0.532	0.405	0.331	0.547	0.595	0.619	0.654	0.365	0.772	–	0.81	0.734	0.738	0.59
NCI-H3122	0.107	0.141	0.0763	0.0869	0.571	0.629	0.652	0.577	0.518	0.829	0.923	0.935	0.96	0.991	0.937	1.01	0.986	0.971	1.01	0.0872
PC-3 [JPC-3]	0.746	0.655	0.729	0.753	0.781	0.713	0.747	0.805	0.718	0.773	0.74	0.813	0.755	0.755	0.82	–	0.875	0.898	0.773	0.797
PC-14	–	0.184	0.14	0.134	0.388	0.629	0.766	0.688	0.699	0.292	0.774	0.82	0.743	0.866	0.357	0.313	0.335	0.385	0.327	–
RERF-LC-KJ	1.35	1.17	1.26	1.08	0.468	0.571	0.511	0.608	0.472	0.39	0.455	0.634	0.538	0.57	1.07	0.896	0.999	0.933	1.03	1.24
